Data reported in patent US8426592B2, “Histone deacetylases, and uses related thereto” (President and Fellows of Harvard College, priority 1996, dated 2013).
Read-outs that look alike come from different tables or passages of the source. Non-standard residues stand in square brackets, D forms with d. Residues, ends and D or L forms follow the SMILES beside them. Aoe = N[C@@H](CCCCCC(=O)[C@@H]1CO1)C(=O)O

Tests used:
[1] = system: mammalian cells; conditions: cited from earlier work; for gene expression and differentiation: certain mammalian cell lines; for cell cycle arrest: mammalian cells
[2] = system: histone deacetylase; test: Histone deacetylase assay, release of [3H]acetic acid from [3H]acetylated histone H4 (1-24) peptide; assay type: biochemical; conditions: 20 nM; crude or partially purified (Mono Q) bovine thymus nuclear enzyme; pretreatment 30 min at 4° C.
Experimental: Nuclear proteins from bovine thymus were precipitated with ammonium sulfate and fractionated on a Mono Q column. […] For the histone deacetylase assay, a peptide corresponding to bovine histone H4 (1-24) was synthesized. The peptide was chemically acetylated with sodium [^3H]acetate (5.3 Ci/mmol, New England Nuclear)/BOP reagent (Aldrich) and purified by reverse phase HPLC. Two microliters of [^3H]peptide (˜40,000 dpm) were used per […] assay. After incubation at 37° C. for one hour, the reaction was quenched with 1 M HCl/0.16 M acetic acid (50 μl). Released [^3H]acetic acid was extracted with 600 μl of ethyl acetate and quantified by scintillation counting. […] A280=absorbance at 280 n.
Briefly, thymocytes (˜12 g) prepared from fresh bovine thymus were homgenized in hypotonic lysis buffer [20 mM tris (pH 7.8), 20 mM NaCl, 1 mM EDTA, 10% glycerol, 1 mM PMSF, 1 mM benzamidine, 10 μg/ml each of pepstatin, aprotinin, and leupeptin] by mechanical disruption and the nuclei were isolated by centrifugation at 3000 g. Nuclei were resuspended in lysis buffer and the proteins were extracted with 0.4 M ammonium sulfate. The viscous lysate was sonicated and clarified by centrifugation at 100,000 g for one hour. Proteins were then precipitated with 90% saturated ammonium sulfate and recovered by centrifugation (100,000 g, one hour). […]

[3] = system: histone deacetylase; conditions: cited from earlier work; for histone deacetylation: cultured mammalian cells, fractioned cell extracts
[4] = system: bovine p46-p50; test: Binding of bovine thymus nuclear proteins to K-trap affinity matrix in presence of inhibitors, silver stained gel; conditions: incubation in presence of inhibitor
Experimental: Nuclear proteins from human Jurkat T cells were prepared identically to those from bovine thymus (FIG. 1B). Molecular size standards (in kilodaltons) are indicated to the right.
K-trap was deprotected with Pd(Ph3P)4 and coupled to an activated agarose matrix (FIG. 2A). […] Bound polypeptides were eluted by boiling the matrix in 1% SDS buffer and separated b polyacrylamide gel electrophoresis.

[5] = system: trapoxin binding protein; test: Trapoxin binding, charcoal precipitation assay with [3H]trapoxin; conditions: simultaneous addition, bovine thymus extracts
[6] = target: T1, HD1 and RbAp48 (Homo sapiens, UniProt Q13547); test: Immunoblot of proteins eluted from K-trap affinity matrix; assay type: binding, bovine and human; conditions: affinity purification in presence of inhibitor
T1 construct: endogenous in cells; host or cells: Jurkat nuclear extract (the same blot also carries bovine thymus nuclear proteins)
Source text: Proteins eluted from the K-trap affinity matrix (FIG. 2) were separated by SDS-PAGE and transferred to Immobilon-P (Millipore). Blots were probed with polyclonal anti-HD1 (319-336) or monoclonal anti-RbAp48 and bound antibodies were detected with enhanced chemiluminescence (Amersham).
To determine the relationship between the proteins from bovine thymus (p46-p50) and the proteins isolated from human Jurkat T cells (p50 and p55), an antiserum was generated against a peptide specified by the HD1 open reading frame (FIG. 3A, amino acids […]).

[7] = target: T2, HD1 (Homo sapiens, UniProt Q13547); test: Histone deacetylase activity of anti-HD1(467-482) immunoprecipitates from Jurkat nuclear extract; assay type: biochemical; conditions: endogenous HD1 from Jurkat crude nuclear extracts
T2 construct: endogenous in cells; host or cells: Jurkat T cells (nuclear extract)
Experimental: After resuspending the immunoprecipitates in HDx buffer [20 mM tris (pH 8), 150 mM NaCl, 10% glycerol], inhibitors were added as indicated, and histone deacetylase activity was measured as described in FIG. 1A.
We used affinity purified antibodies directed against a COOH-terminal peptide (amino acids 467 to 482) to immunoprecipitate HD1 from crude nuclear extracts.

[8] = target: T3, recombinant FLAG epitope tagged HD1 (HD1-F) (Homo sapiens, UniProt Q13547); test: Histone deacetylase activity of anti-FLAG immunoprecipitates of recombinant HD1-F; assay type: biochemical; conditions: Jurkat cells transfected with pBJ5/HD1-F
T3 construct: expressed in transfected cells; host or cells: Tag Jurkat cells, electroporated with pBJ5/HD1-F
Experimental: Anti-FLAG antibodies conjugated to agarose beads (IBI) were used to immunoprecipitate recombinant HD1 in the presence or absence of FLAG peptide competitor, and histone deacetylase activity was measured as described above.

[9] = target: T4, recombinant HD1-F (Homo sapiens, UniProt Q13547); test: Interaction between recombinant HD1-F and K-trap affinity matrix, immunoblot; assay type: binding; conditions: lysates of transfected Jurkat cells
T4 construct: expressed in transfected cells; host or cells: Tag Jurkat cells, electroporated with pBJ5/HD1-F
Experimental: Lysates from Jurkat cells transfected with pBJ5/HD1-F were incubated with the K-trap affinity matrix in the presence or absence of inhibitors. Immunoblots of the eluted proteins were probed with the anti-FLAG M2 monoclonal antibody (IBI).

T3 sequence (Q13547 whole entry): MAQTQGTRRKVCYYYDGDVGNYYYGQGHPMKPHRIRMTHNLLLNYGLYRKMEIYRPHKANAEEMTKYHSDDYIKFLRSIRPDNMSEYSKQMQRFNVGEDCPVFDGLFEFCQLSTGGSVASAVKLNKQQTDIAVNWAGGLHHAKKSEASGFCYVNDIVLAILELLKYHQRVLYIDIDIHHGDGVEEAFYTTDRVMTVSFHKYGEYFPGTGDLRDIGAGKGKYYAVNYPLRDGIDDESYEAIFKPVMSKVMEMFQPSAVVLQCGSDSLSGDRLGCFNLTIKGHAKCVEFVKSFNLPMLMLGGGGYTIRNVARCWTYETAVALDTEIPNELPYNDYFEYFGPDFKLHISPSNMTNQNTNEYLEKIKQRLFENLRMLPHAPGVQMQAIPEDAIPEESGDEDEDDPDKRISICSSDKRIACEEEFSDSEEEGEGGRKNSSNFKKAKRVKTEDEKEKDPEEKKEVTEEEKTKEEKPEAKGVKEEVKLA
T1 sequence (Q13547 whole entry): as above
T1 sequence (Q09028 2-425 partner): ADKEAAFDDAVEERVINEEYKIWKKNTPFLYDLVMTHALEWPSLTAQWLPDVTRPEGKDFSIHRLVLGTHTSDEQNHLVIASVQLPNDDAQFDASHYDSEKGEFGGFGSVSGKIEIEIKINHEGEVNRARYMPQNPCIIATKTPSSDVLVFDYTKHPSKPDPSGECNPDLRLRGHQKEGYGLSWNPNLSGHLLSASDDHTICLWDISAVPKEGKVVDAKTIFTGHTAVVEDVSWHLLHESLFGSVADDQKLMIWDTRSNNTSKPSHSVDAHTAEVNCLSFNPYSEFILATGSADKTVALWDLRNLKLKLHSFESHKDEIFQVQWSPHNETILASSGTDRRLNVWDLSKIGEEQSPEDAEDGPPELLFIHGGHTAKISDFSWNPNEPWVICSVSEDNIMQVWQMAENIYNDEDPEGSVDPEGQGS
T2 sequence (Q13547 whole entry): as the sequence (Q13547 whole entry) above
T2 sequence (Q09028 2-425 partner limits assumed): as the sequence (Q09028 2-425 partner) above
T4 sequence (Q13547 whole entry): as the sequence (Q13547 whole entry) above

Structure (SMILES) | gene expression and differentiation [1] | cell cycle arrest [1] | cell cycle arrest ([1]; listed as Trapoxin) | histone deacetylase activity after treatment [2] | mode of inhibition of histone deacetylase activity [3] | histone deacetylation [3] | histone deacetylation ([3]; listed as Trapoxin) | retention of bovine p46-p50 on K-trap matrix in the presence of inhibitor [4] | competition with [3H]trapoxin binding [5] | potency relative to sodium butyrate [1] | detection of HD1 and RbAp48 in K-trap matrix eluates [6] | histone deacetylase activity of HD1 immunoprecipitates [7] | histone deacetylase activity of HD1-F immunoprecipitates [8] | competition of HD1-F interaction with K-trap affinity matrix [9]
O=C1N[C@@H](Cc2ccccc2)C(=O)N2CCC[C@@H]2C(=O)N[C@@H](CCCCCC(=O)[C@@H]2CO2)C(=O)N[C@H]1Cc1ccccc1 [trapoxin] (cyclo(FF[dP][Aoe])) | alter gene expression and induce certain mammalian cell lines to differentiate | G1 and G2 phase cell cycle arrest | causes mammalian cells to arrest in the cell cycle | abolished deacetylase activity | “irreversible” inhibitor | inhibit histone deacetylation | inhibits histone deacetylation in vivo | not retained | completed |  |  |  |  | 
CC(/C=C/C(=O)NO)=C\[C@@H](C)C(=O)c1ccc(N(C)C)cc1 [trichostatin] | alter gene expression and induce certain mammalian cell lines to differentiate | G1 and G2 phase cell cycle arrest |  | abolished deacetylase activity |  | inhibit histone deacetylation |  | not retained | competed | five orders of magnitude more potent | neither HD1 nor RbAp48 was detected | inhibited | sensitive | fully competed by nanomolar concentrations
